Data published in patent publication US4426382A, “4-Amino-6,7-dimethoxy-2-piperazinylquinazoline derivatives, their preparation and use” (Sankyo Company Limited, priority 1980, dated 1984).
Where a name gives a salt, the structure may show the parent alone.

System: spontaneously hypertensive rats
Test: antihypertensive activity: blood pressure after oral administration to conscious spontaneously hypertensive rats
Format: in vivo
Conditions: male spontaneously hypertensive rats
Experimental: The animals used in this test were 15 week old male spontaneously hypertensive rats. 3-5 rats were used to test each concentration of each compound. Each animal was treated as follows. […] A polyethylene cannula was then inserted into the abdominal aorta by the method of Weeks and Jones [J. R. Weeks and J. A. Jones, Proc. Soc. […] The other end of the cannula, leading out of the body, was fixed to the neck. One week after the operation, when the animal had recovered from post-operative invasion, this end of the cannula was connected to an apparatus to measure the blood pressure and heart beat directly without the need for any further anesthesia or restraint. The haemomanometer used was an improved type of that originated by Laffan et al. [P. J. Laffan, A. Peterson, S. W. Hitch and C.
The compound under test was suspended at the desired concentration in a 0.3% w/v aqueous solution of carboxymethylcellulose and administered orally in a volume of 2 ml/kg body weight. […] After administration of the sample, the blood pressure and heart beat of each animal were measured for 24 hours at 15 minute intervals.
For purposes of comparison, the same experiment was carried out with various concentrations of the known hypotensive agent, prazosin, in the form of its hydrochloride.
Δmax =Maximum change in blood pressure (mm/Hg) after administration of the compound under test;
Tmax =Time (in hours) after administration of the compound under test required for the blood pressure to obtain a maximum change;
T0.5 max =Time (in hours) after administration of the compound under test for the blood pressure to return to one-half of its maximum value.

Compound	T0.5 max, time after administration for the blood pressure to return to one-half of its maximum value (dose 3 mg/kg oral)	Tmax, time after administration required for the blood pressure to obtain a maximum change (dose 3 mg/kg oral)	Δmax, maximum change in blood pressure after administration (dose 3 mg/kg oral)	T0.5 max, time after administration for the blood pressure to return to one-half of its maximum value (dose 10 mg/kg oral)	Tmax, time after administration required for the blood pressure to obtain a maximum change (dose 10 mg/kg oral)	Δmax, maximum change in blood pressure after administration (dose 10 mg/kg oral)	T0.5 max, time after administration for the blood pressure to return to one-half of its maximum value (dose 30 mg/kg oral)	Tmax, time after administration required for the blood pressure to obtain a maximum change (dose 30 mg/kg oral)	Δmax, maximum change in blood pressure after administration (dose 30 mg/kg oral)	T0.5 max, time after administration for the blood pressure to return to one-half of its maximum value (dose 3 mg/kg oral, 3 mg/kg)	T0.5 max, time after administration for the blood pressure to return to one-half of its maximum value (dose 30 mg/kg oral, 30 mg/kg)	Tmax, time after administration required for the blood pressure to obtain a maximum change (dose 30 mg/kg oral, 30 mg/kg)	Δmax, maximum change in blood pressure after administration (dose 30 mg/kg oral, 30 mg/kg)	T0.5 max, time after administration for the blood pressure to return to one-half of its maximum value (dose 1 mg/kg oral)	Tmax, time after administration required for the blood pressure to obtain a maximum change (dose 1 mg/kg oral)	Δmax, maximum change in blood pressure after administration (dose 1 mg/kg oral)
COc1cc2nc(N3CCN(C(=O)[C@@H]4C[C@H]4c4ccccc4)CC3)nc(N)c2cc1OC (relative stereo) [34 hydrochloride hydrate]	8 h	1 h	-33 mmHg	12 h	2 h	-50 mmHg	–	–	–	–	–	–	–	–	–	–
CC=CC(=O)N1CCN(c2nc(N)c3cc(OC)c(OC)cc3n2)CC1 [1 hydrochloride hydrate]	8 h	0.25 h	-35 mmHg	–	–	–	12 h	0.5 h	-40 mmHg	–	–	–	–	–	–	–
CCC=CC(=O)N1CCN(c2nc(N)c3cc(OC)c(OC)cc3n2)CC1 [5 hydrochloride]	–	0.5 h	-40 mmHg	–	–	–	–	–	–	7 h	14 h	0.75 h	-48 mmHg	–	–	–
CC=CC(=O)N1CCCN(c2nc(N)c3cc(OC)c(OC)cc3n2)CC1 [9 hydrochloride hydrate]	3.5 h	0.5 h	-25 mmHg	–	–	–	5 h	0.75 h	-35 mmHg	–	–	–	–	–	–	–
COc1cc2nc(N3CCN(C(=O)c4ccc(OCc5ccccc5)cc4)CC3)nc(N)c2cc1OC [14 hydrochloride dihydrate]	9.5 h	6 h	-18 mmHg	12 h	6 to 7 h	-29 mmHg	15 h	6 to 7 h	-35 mmHg	–	–	–	–	–	–	–
COc1cc2nc(N3CCN(C(=O)C(C)Oc4ccccc4)CC3)nc(N)c2cc1OC (stereo not drawn) [25 hydrochloride hemihydrate]	14 h	1 h	-70 mmHg	–	–	–	–	–	–	–	–	–	–	7 h	1 h	-40 mmHg
COc1cc2nc(N3CCN(C(=O)COc4ccccc4)CC3)nc(N)c2cc1OC [27 hydrochloride hydrate]	8 h	5 h	-20 mmHg	–	–	–	8 h	5 h	-40 mmHg	–	–	–	–	–	–	–
